According to the NIST ThermoML archive (doi:10.1021/je034102r):

Experiment: molar heat capacity at constant pressure
Conditions: 101.33 kPa, Liquid, heat bridge-scanning calorimeter

CCCCn1cc[n+](C)c1.F[P-](F)(F)(F)(F)F [1-butyl-3-methylimidazolium hexafluorophosphate]
Conditions | molar heat capacity at constant pressure [J/K/mol]
353.76 K | 441.34
353.89 K | 441.34
354.01 K | 441.62
354.29 K | 441.9
354.41 K | 441.9
354.54 K | 441.62
354.66 K | 441.9
354.79 K | 442.19
354.91 K | 441.9
355.04 K | 442.19
355.16 K | 442.47
355.29 K | 442.47
355.41 K | 442.47
355.54 K | 442.47
355.81 K | 442.76
355.94 K | 443.04
356.06 K | 442.76
356.19 K | 442.76
356.31 K | 443.04
356.44 K | 443.04
356.56 K | 443.32
356.69 K | 443.32
356.81 K | 443.61
357.1 K | 443.32
357.24 K | 443.61
357.36 K | 443.61
357.49 K | 443.61
357.61 K | 443.61
357.74 K | 443.89
357.86 K | 443.89
357.99 K | 444.18
358.12 K | 444.18
358.24 K | 444.18
358.37 K | 444.18
358.64 K | 444.46
358.76 K | 444.75
358.89 K | 444.46
359.02 K | 444.75
359.14 K | 444.75
359.27 K | 444.75
359.39 K | 445.03
359.52 K | 445.03
359.64 K | 445.31
359.93 K | 445.31
360.05 K | 445.31
360.18 K | 445.6
360.3 K | 445.6
360.43 K | 445.88
360.55 K | 445.88
360.68 K | 445.88
360.8 K | 446.17
360.93 K | 446.17
361.05 K | 446.17
361.18 K | 446.45
361.45 K | 446.45
361.58 K | 446.45
361.7 K | 446.45
361.83 K | 446.45
361.95 K | 446.73
362.08 K | 446.73
362.2 K | 447.02
362.33 K | 447.02
362.45 K | 447.02
362.73 K | 447.02
362.86 K | 447.02
362.98 K | 447.3
363.12 K | 447.3
363.25 K | 447.3
363.37 K | 447.3
363.5 K | 447.59
363.62 K | 447.59
363.75 K | 447.87
363.87 K | 447.59
364 K | 447.87
364.27 K | 447.87
364.4 K | 447.87
364.52 K | 447.87
364.65 K | 448.16
364.77 K | 448.16
364.9 K | 448.16
365.02 K | 448.16
365.15 K | 448.44
365.28 K | 448.16
365.56 K | 448.44
365.69 K | 448.44
365.81 K | 448.72
365.94 K | 448.72
366.06 K | 448.72
366.19 K | 448.72
366.32 K | 448.72
366.44 K | 449.01
366.57 K | 449.01
366.69 K | 449.01
366.82 K | 449.29
367.09 K | 449.29
